# Test results: patent publication US20220235011A1, “PHTHALAZINONE COMPOUNDS AND USE THEREOF” (ST PHARM CO., LTD., priority 2019, published 2022)
# Target: T1, Sirt6 (Homo sapiens, UniProt Q8N6T7)
# T1 construct: purchased CycLex CY-1156V2
# Assay: Measurement of Sirt6 Activity (CycLex Sirt6 Deacetylase Fluorometric Assay Kit)
# Format: biochemical
# Conditions: compound at 10 μM; fluorescence relative to the group without compound treatment (positive control group)
# Description: LC-MS (ESI, m/z)=430.1 (M+H^+) Experimental Example 1: Measurement of Sirt6 Activity Compounds having Sirt6 activity were selected using a CycLex Sirt6 Deacetylase Fluorometric Assay Kit (cat. CY-1156V2) manufactured by CycLex.
# When a fluorescent-attached acetylated lysine substrate is treated with Sirt6 enzyme, Sirt6 deacetylates the acetylated lysine of the substrate and lysylendopeptidase cleaves the C-terminal peptide bond connected to the lysine, by which fluorescence is emitted. The activity of a compound is calculated by observing the intensity of fluorescence when the compound is treated along with Sirt6 enzyme. When treating the compound, the compound aids in the activity of Sirt6 enzyme, so as to result in stronger fluorescence. Therefore, by calculating the ratio of the stronger fluorescence relative to the fluorescence emitted from the group without compound treatment (i.e., positive control group), relative activity can be calculated.
# Activity evaluation was performed according to the following procedure.
# The compound whose activity is to be evaluated was prepared by diluting in phosphate-buffered saline (PBS) to 10 times of the desired concentration (e.g., when measuring Sirt6 assay activity at 10 μM, the compound is prepared at a concentration of 100 μM in PBS). 1 μL of a 1 Ox Sirt6 assay buffer, 0.8 μL of 50× fluoro-substrate peptide, 1 μL of nicotinamide adenine dinucleotide (NAD), 1 μL of a developer and 4.2 μL of H2O were mixed to prepare mixtures equal to the number of samples, and 8 μL was dispensed into each Black 384 well. An additional 1 μL of PBS was added to each of a “no enzyme group” and a positive control group, and 1 μL of the compound diluted in PBS was added to an activity evaluation group. Recombinant Sirt6 was 1:8 diluted in a 1×Sirt6 assay buffer, and 1 μL thereof was added to each of the positive control group and the activity evaluation group. 1 μL of the 1×Sirt6 assay buffer was added to the “no enzyme group.” After reacting at room temperature for one hour, results were measured with a fluorescence spectrometer (excitation: 490±10 nm, emission: 530±10 nm) to confirm the presence or absence of Sirt6 activity and measure the intensity of the activity.
# T1 sequence (Q8N6T7 whole entry): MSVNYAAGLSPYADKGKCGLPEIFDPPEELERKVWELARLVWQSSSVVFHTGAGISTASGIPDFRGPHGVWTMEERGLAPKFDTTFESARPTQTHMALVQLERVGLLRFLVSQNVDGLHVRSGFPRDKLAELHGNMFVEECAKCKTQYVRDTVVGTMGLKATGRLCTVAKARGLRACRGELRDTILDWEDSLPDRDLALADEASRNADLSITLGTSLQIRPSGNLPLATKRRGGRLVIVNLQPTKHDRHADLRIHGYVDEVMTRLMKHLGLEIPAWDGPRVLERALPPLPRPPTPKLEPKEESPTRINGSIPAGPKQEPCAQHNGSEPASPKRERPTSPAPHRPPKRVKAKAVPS
row,"Sirt6 Activity (% activity, 10 μM)",Compound
1,131 % activity,"O=c1c2ccccc2c(-c2cc(/C=[N+](\[O-])Cc3ccccc3)ccc2F)nn1-c1ccc(F)cc1 [Example 58, (Z)—N-Benzyl-1-(4-fluoro-3-(3-(4-fluorophenyl)-4-oxo-3,4-dihydrophthalazin-1-yl)phenyl) Methanimine Oxide]"
2,109 % activity,"O=c1c2ccccc2c(-c2ccc(Cl)c([N+](=O)[O-])c2)nn1-c1ccc(F)cc1 [Example 59, 4-(4-Chloro-3-nitrophenyl)-2-(4-fluorophenyl)phthalazin-1(2H)-one]"
3,176 % activity,"Nc1cccc(-c2nn(-c3ccc(F)cc3)c(=O)c3ccccc23)c1 [Example 60, 4-(3-Aminophenyl)-2-(4-fluorophenyl) phthalazin-1(2H)-one]"
4,104 % activity,"CCS(=O)(=O)Nc1cccc(-c2nn(Cc3ccccc3)c(=O)c3ccccc23)c1 [Example 61, N-(3-(3-Benzyl-4-oxo-3,4-dihydrophthalazin-1-yl)phenyl)ethanesulfonamide]"
5,111 % activity,"CCS(=O)(=O)Nc1cccc(-c2nn(CCc3ccccc3)c(=O)c3ccccc23)c1 [Example 62, N-(3-(4-Oxo-3-phenethyl-3,4-dihydrophthalazin-1-yl)phenyl)ethanesulfonamide]"
6,103 % activity,"CCS(=O)(=O)Nc1cccc(-c2nn(Cc3ccc(F)cc3)c(=O)c3ccccc23)c1 [Example 63, N-(3-(3-(4-Fluorobenzyl)-4-oxo-3,4-dihydrophthalazin-1-yl)phenyl)ethanesulfonamide]"
7,106 % activity,"CCS(=O)(=O)Nc1cccc(-c2nn(-c3ccc(-c4ccccc4)cc3)c(=O)c3ccccc23)c1 [Example 64, N-(3-(3-([1,1′-Biphenyl]-4-yl)-4-oxo-3,4-dihydrophthalazin-1-yl)phenyl)ethane Sulfonamide]"
8,96 % activity,"CCS(=O)(=O)N(C)c1cccc(-c2nn(-c3ccc(-c4ccccc4)cc3)c(=O)c3ccccc23)c1 [Example 65, N-(3-(3-([1,1′-Biphenyl]-4-yl)-4-oxo-3,4-dihydrophthalazin-1-yl)phenyl)-N-methylethanesulfonamide]"
9,103 % activity,"COC(=O)c1cccc(-c2nn(-c3ccc(F)cc3)c(=O)c3ccccc23)c1 [Example 66, Methyl 3-(3-(4-fluorophenyl)-4-oxo-3,4-dihydrophthalazin-1-yl)benzoate]"
10,166 % activity,"CC(C)S(=O)(=O)Nc1cccc(-c2nn(-c3ccc(F)cc3)c(=O)c3ccccc23)c1 [Example 67, N-(3-(3-(4-Fluorophenyl)-4-oxo-3,4-dihydrophthalazin-1-yl)phenyl)propan-2-sulfonamide]"
11,160 % activity,"CCCS(=O)(=O)Nc1cccc(-c2nn(-c3ccc(F)cc3)c(=O)c3ccccc23)c1 [Example 68, N-(3-(3-(4-Fluorophenyl)-4-oxo-3,4-dihydrophthalazin-1-yl)phenyl)propan-1-sulfonamide]"
12,209 % activity,"CN(c1cccc(-c2nn(-c3ccc(F)cc3)c(=O)c3ccccc23)c1)S(C)(=O)=O [Example 69, N-(3-(3-(4-Fluorophenyl)-4-oxo-3,4-dihydrophthalazin-1-yl)phenyl)-N-methylmethane Sulfonamide]"
13,135 % activity,"CCS(=O)(=O)N(C)c1cccc(-c2nn(-c3ccc(F)cc3)c(=O)c3ccccc23)c1 [Example 70, N-(3-(3-(4-Fluorophenyl)-4-oxo-3,4-dihydrophthalazin-1-yl)phenyl)-N-methylethane Sulfonamide]"
14,150 % activity,"O=c1c2ccccc2c(-c2cccc(NS(=O)(=O)C3CC3)c2)nn1-c1ccc(F)cc1 [Example 71, N-(3-(3-(4-Fluorophenyl)-4-oxo-3,4-dihydrophthalazin-1-yl)phenyl)cyclopropane Sulfonamide]"
15,115 % activity,"CCCS(=O)(=O)N(C)c1cccc(-c2nn(-c3ccc(F)cc3)c(=O)c3ccccc23)c1 [Example 72, N-(3-(3-(4-Fluorophenyl)-4-oxo-3,4-dihydrophthalazin-1-yl)phenyl)-N-methylpropan-1-sulfonamide]"
16,124 % activity,"CC(C)S(=O)(=O)N(C)c1cccc(-c2nn(-c3ccc(F)cc3)c(=O)c3ccccc23)c1 [Example 73, N-(3-(3-(4-Fluorophenyl)-4-oxo-3,4-dihydrophthalazin-1-yl)phenyl)-N-methylpropan-2-sulfonamide]"
17,128 % activity,"CN(c1cccc(-c2nn(-c3ccc(F)cc3)c(=O)c3ccccc23)c1)S(=O)(=O)C1CC1 [Example 74, N-(3-(3-(4-Fluorophenyl)-4-oxo-3,4-dihydrophthalazin-1-yl)phenyl)-N-methylcyclopropane Sulfonamide]"
18,139 % activity,"CN(C)S(=O)(=O)N(C)c1cccc(-c2nn(-c3ccc(F)cc3)c(=O)c3ccccc23)c1 [Example 75, N-(3-(3-(4-Fluorophenyl)-4-oxo-3,4-dihydrophthalazin-1-yl)phenyl)-N-methyl-dimethyl Sulfamoylamide]"
19,125 % activity,"COC(=O)N(C)S(=O)(=O)N(C)c1cccc(-c2nn(-c3ccc(F)cc3)c(=O)c3ccccc23)c1 [Example 76, Methyl (N-(3-(3-(4-fluorophenyl)-4-oxo-3,4-dihydrophthalazin-1-yl)phenyl)-N-methylsulfamoyl) (methyl)carbamate]"
20,194 % activity,"O=c1c2ccccc2c(-c2cccc(NS(=O)(=O)C(F)(F)F)c2)nn1-c1ccc(F)cc1 [Example 77, 1,1,1-Trifluoro-N-(3-(3-(4-fluorophenyl)-4-oxo-3,4-dihydrophthalazin-1-yl)phenyl)methanesulfonamide]"
21,122 % activity,"CN(c1cccc(-c2nn(-c3ccc(F)cc3)c(=O)c3ccccc23)c1)S(=O)(=O)C(F)(F)F [Example 78, 1,1,1-Trifluoro-N-(3-(3-(4-fluorophenyl)-4-oxo-3,4-dihydrophthalazin-1-yl)phenyl)-N-methylmethane Sulfonamide]"
22,167 % activity,"O=C(NOC1CCCCO1)c1cccc(-c2nn(-c3ccc(F)cc3)c(=O)c3ccccc23)c1 (stereo not drawn) [Example 79, 3-(3-(4-Fluorophenyl)-4-oxo-3,4-dihydrophthalazin-1-yl)-N-((tetrahydro-2H-pyran-2-yl)oxy)benzamide]"
23,216 % activity,"CNS(=O)(=O)N(C)c1cccc(-c2nn(-c3ccc(F)cc3)c(=O)c3ccccc23)c1 [Example 80, N-(3-(3-(4-Fluorophenyl)-4-oxo-3,4-dihydrophthalazin-1-yl)phenyl)-N-methyl-methyl Sulfamoylamide]"
24,115 % activity,"O=c1c2ccccc2c(-c2cccc(-c3nnn[nH]3)c2)nn1-c1ccc(F)cc1 [Example 81, 4-(3-(1H-Tetrazol-5-yl)phenyl)-2-(4-fluorophenyl)phthalazin-1(2H)-one]"
25,111 % activity,"CCS(=O)(=O)Nc1cncc(-c2nn(-c3ccc(F)cc3)c(=O)c3ccccc23)c1 [Example 82, N-(5-(3-(4-Fluorophenyl)-4-oxo-3,4-dihydrophthalazin-1-yl)pyridin-3-yl)ethanesulfonamide]"
26,162 % activity,"O=C(NO)c1cccc(-c2nn(-c3ccc(F)cc3)c(=O)c3ccccc23)c1 [Example 83, 3-(3-(4-Fluorophenyl)-4-oxo-3,4-dihydrophthalazin-1-yl)-N-hydroxybenzamide]"
27,123 % activity,"C/[N+]([O-])=C/c1cccc(-c2nn(-c3ccc(-c4ccccc4)cc3)c(=O)c3ccccc23)c1 [Example 84, (Z)-1-(3-(3-([1,1′-Biphenyl]-4-yl)-4-oxo-3,4-dihydrophthalazin-1-yl)phenyl)-N-methylmethanimine Oxide]"
28,118 % activity,"CC(C)/[N+]([O-])=C/c1cccc(-c2nn(-c3ccc(-c4ccccc4)cc3)c(=O)c3ccccc23)c1 [Example 85, (Z)-1-(3-(3-([1,1′-Biphenyl]-4-yl)-4-oxo-3,4-dihydrophthalazin-1-yl)phenyl)-N-isopropylmethanimine Oxide]"
29,196 % activity,"CNS(=O)(=O)c1cccc(-c2nn(-c3ccc(F)cc3)c(=O)c3ccccc23)c1 [Example 86, 3-(3-(4-Fluorophenyl)-4-oxo-3,4-dihydrophthalazin-1-yl)-N-methylbenzenesulfonamide]"
30,226 % activity,"CCNS(=O)(=O)c1cccc(-c2nn(-c3ccc(F)cc3)c(=O)c3ccccc23)c1 [Example 87, N-Ethyl-3-(3-(4-fluorophenyl)-4-oxo-3,4-dihydrophthalazin-1-yl)benzenesulfonamide]"
